# From patent US20200087340A1, “LIF/LIFR ANTAGONIST IN ONCOLOGY AND NONMALIGNANT DISEASES” (Evestra, Inc., priority 2018, published 2020)
# “Also recorded” adds a separate entry of the source.
# Columns and labels:
# PK study in Mouse = type: in vivo
# [1] = system: Cytochrome P450 (1A2, 2C9, 2C19, 2D6, 3A4); test: CYP inhibition using human liver microsomes; type: in vitro ADME; details: human liver microsomes (1A2, 2C9, 2C19, 2D6, 3A4)
# hERG membrane = hERG membrane (Homo sapiens, UniProt Q12809); test: Cardiotoxicity assessment (hERG), fluorescence polarization assay; type: binding
# Chain of hERG membrane (Q12809 whole entry): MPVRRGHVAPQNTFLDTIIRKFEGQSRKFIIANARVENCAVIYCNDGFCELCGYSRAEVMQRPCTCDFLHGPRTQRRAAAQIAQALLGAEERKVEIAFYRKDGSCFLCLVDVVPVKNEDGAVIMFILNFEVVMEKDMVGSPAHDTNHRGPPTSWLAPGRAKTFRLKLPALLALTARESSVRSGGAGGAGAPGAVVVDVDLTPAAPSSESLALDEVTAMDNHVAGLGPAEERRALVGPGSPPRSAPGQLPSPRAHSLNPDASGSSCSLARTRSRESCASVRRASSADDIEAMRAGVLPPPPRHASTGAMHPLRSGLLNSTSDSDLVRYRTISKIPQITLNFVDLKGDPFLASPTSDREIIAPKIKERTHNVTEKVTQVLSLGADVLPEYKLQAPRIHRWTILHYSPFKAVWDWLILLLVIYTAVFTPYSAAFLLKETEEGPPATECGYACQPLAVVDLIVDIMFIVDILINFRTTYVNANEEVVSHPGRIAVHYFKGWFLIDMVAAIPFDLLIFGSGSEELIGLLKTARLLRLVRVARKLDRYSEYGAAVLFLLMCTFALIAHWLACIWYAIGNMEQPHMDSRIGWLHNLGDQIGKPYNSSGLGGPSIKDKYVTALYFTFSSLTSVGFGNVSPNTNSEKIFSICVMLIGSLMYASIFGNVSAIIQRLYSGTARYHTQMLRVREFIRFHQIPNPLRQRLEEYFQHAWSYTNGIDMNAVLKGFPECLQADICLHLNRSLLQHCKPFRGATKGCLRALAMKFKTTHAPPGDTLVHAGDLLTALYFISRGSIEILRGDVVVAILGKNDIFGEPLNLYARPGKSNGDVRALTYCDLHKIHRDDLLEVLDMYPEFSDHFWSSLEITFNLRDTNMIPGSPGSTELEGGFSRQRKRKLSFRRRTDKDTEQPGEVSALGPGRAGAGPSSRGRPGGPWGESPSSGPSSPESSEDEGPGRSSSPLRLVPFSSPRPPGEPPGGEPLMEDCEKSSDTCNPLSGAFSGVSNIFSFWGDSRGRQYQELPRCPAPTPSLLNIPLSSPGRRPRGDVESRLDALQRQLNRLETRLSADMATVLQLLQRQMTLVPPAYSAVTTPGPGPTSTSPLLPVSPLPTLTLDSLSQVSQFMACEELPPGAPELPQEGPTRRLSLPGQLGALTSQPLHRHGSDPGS
# [2] = system: ID-8 ovarian syngeneic tumor; test: ID-8 ovarian syngeneic murine tumor model
# Source text: CD3+T cells: T cell co-receptor helps to activate both the cytotoxic T cell (CD8+ naive T cells) and also T helper cells (CD4+ naive T cells). • 2. Tumor infiltrating leukocytes • 3. CD19 is widely expressed during all phases of B cell development until terminal differentiation into plasma cells. • 4. […] M1 macrophages: produced along with inflammatory reaction. […] CD8-positive T cells: are a critical subpopulation of MEW class I-restricted T cell and are mediators of adaptive immunity.
# U-CH1 = test: 48 hours MTT cell proliferation assay, chordoma; type: cell-based; details: UCH1; U-CH1, 48 hours MTT
# Procedure: (§1) EC359 was tested two chormoma cell lines (Mug-Chor and U-CH1) for cell viability in 48 hours MTT cell proliferation assay.
# Mug-Chor cells = test: 48 hours MTT cell proliferation assay, chordoma; type: cell-based
# Procedure: as §1
# Microsomal stability [3] = type: in vitro ADME; details: Dog
# Single dose MTD = type: in vivo; details: 10, 25, 50 and 100 mg/kg
# [4] = system: triple negative breast cancer (TNBC) stem cells; test: TNBC stem cell inhibition; type: cell-based
# [5] = system: cancer-associated fibroblasts (CAFs), alpha-SMA; test: Cytoskeletal disruption / cancer-associated fibroblasts; type: cell-based
# [6] = system: various cancer cells lines; test: Cytotoxicity assays in various cancer cell lines; type: cell-based
# [7] = system: High trans-fat fructose diet induced liver fibrosis; test: High fat diet (HFD) induced liver fibrosis in rats; type: in vivo, rat
# LIF = LIF (Homo sapiens, UniProt P15018); test: biochemical
# Chain of LIF (P15018 23-202): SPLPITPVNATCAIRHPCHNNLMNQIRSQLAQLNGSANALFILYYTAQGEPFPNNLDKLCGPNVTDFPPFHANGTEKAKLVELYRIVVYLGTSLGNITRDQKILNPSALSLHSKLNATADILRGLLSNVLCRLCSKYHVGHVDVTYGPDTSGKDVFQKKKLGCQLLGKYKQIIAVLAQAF
# [8] = system: FC 1295 and imPSCc-2 organoids; test: Pancreatic cancer / stellate cell line derived organoid system; type: cell-based, Murine
# Procedure: Most solid tumors have extensive stroma that not only facilitates the tumor progression but also impedes the delivery of the chemotherapeutic agents. Due to lack of any in-vitro system, presently it is difficult to evaluate any stroma-targeted therapies. Therefore, we developed an organoid system using labeled pancreatic cancer and stellate cell lines. Murine (FC 1295 and […]-2) cell lines cultured in different combinations were grown as an organoid system using matrigel. The organoids, starting day four were treated with either gemcitabine or EC359, a novel mifepristone derived steroidal cytotoxic agent that targets tumor stroma, or both in combination. qRT-PCR analysis of activated stroma signature genes was performed on the mRNA isolated from different treatment groups. H&E, immunohistochemistry, and western blot analysis were performed to further validate our findings. […] Our novel cell line derived organoid model can be utilized for fast, and inexpensive evaluation of stroma-targeted therapies.
# Plasma stability [9] = type: in vitro ADME; details: Human
# Plasma stability [10] = type: in vitro ADME; details: Rat
# Microsomal stability [11] = type: in vitro ADME; details: Mouse
# cancer cells = test: Colony formation in soft agar (EC359); type: cell-based
# Plasma protein binding [12] = type: in vitro ADME; details: dog
# TNBC xenograft = TNBC xenograft (EC359); type: in vivo; details: 1 and 5 mg/kg
# Source text: (§2) . Blockade of LIF-LIFR interaction reduced the STAT3 phosphorylation, mTOR and further downstream signaling cascades. […]. Our findings establish EC359 as a novel LIF/LIFR targeting drug with therapeutic perspectives for patients with advanced primary tumors. LIF/LIFR targeting may result in the blockade of JAK-STAT signaling pathway as well as cancer fibroblast associated pro invasive tumor microenvironment in regular as well as therapy resistant tumors
# Hepatocyte stability [13] = type: in vitro ADME; details: Dog
# Hepatocyte stability [14] = type: in vitro ADME; details: Human
# Microsomal stability [15] = type: in vitro ADME; details: Rat
# Plasma protein binding [16] = type: in vitro ADME; details: human
# GR = target: T1, GR (Homo sapiens, UniProt P04150); test: Off-target binding study (CEREP screen); details: no binding up to, read-out: IC 50 of binding, GR
# T1 construct: CEREP (contract screen, per earlier reading)
# T1 sequence (P04150 whole entry): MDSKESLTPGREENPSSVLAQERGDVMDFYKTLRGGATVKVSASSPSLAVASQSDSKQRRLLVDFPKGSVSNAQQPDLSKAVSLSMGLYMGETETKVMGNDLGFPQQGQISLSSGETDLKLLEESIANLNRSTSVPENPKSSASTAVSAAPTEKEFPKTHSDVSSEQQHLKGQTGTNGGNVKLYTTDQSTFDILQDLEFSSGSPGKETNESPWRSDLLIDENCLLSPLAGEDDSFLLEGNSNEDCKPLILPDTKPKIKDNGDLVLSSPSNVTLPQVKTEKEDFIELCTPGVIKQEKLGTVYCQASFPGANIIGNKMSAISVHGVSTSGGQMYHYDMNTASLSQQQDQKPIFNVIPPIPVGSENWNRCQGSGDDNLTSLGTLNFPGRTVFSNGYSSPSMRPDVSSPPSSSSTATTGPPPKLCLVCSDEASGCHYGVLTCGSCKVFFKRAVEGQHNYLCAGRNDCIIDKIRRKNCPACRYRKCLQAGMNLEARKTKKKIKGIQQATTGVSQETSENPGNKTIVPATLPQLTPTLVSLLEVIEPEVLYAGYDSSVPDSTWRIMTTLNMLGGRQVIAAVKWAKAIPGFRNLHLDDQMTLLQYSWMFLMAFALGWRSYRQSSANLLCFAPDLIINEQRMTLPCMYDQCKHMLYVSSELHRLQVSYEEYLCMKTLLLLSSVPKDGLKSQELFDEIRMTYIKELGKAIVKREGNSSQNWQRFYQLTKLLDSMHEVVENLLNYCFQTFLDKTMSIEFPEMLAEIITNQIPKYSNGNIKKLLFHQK
# MM51 = test: Murine syngeneic MM51 model; type: in vivo; details: 1 and 5 mg/kg
# Source text: as §2
# [17] = system: breast and ovarian cancer cells; test: Combination with HDAC inhibitor, colony formation; type: cell-based
# Source text: Therapy resistance is a major hurdle in cancer chemo/targeted therapy. The role of LIF/LIFR signaling in inducing stemness and hypoxia is well established in different cancers. […] FIG. 16A depicts colony formation of cancer cells under various conditions. […] FIG. 16B depicts the effect of EC359 alone and in combination with SAHA on STAT 3 phosphorylation. FIG. 16C depicts the effect of EC359 alone and in combination with SAHA on induced apoptosis. FIGS. 17A and 17B depicts the effect of EC359 alone and in combination with SAHA on the growth of TNBC patient derived tumors. […] The combination of EC359 and SAHA provided a greater reduction than either […] alone.
# Plasma protein binding [18] = type: in vitro ADME; details: mouse
# Plasma protein binding [19] = type: in vitro ADME; details: rat
# [20] = Solubility: pION, kinetic, thermodynamic; type: physicochemical
# [21] = system: S. typhimurium TA98, TA100, TA1535 and E. coli WP2 uvrA + E. coli WP2[pKM101] strains; test: Mutagenicity testing
# hERG = target: T2, hERG (Homo sapiens, UniProt Q12809); test: Off-target binding study (CEREP screen); details: no binding up to, read-out: IC 50 of binding, hERG
# T2 construct: CEREP (contract screen, per earlier reading)
# T2 sequence (Q12809 whole entry): as the sequence (Q12809 whole entry) above
# [22] = Metabolite identification; type: in vitro ADME
# Hepatocyte stability [23] = type: in vitro ADME; details: Rat
# Caco2 = test: Caco2-permeability & efflux transporter substrate activity; type: in vitro ADME
# Plasma stability [24] = type: in vitro ADME; details: Dog
# Hepatocyte stability [25] = type: in vitro ADME; details: Mouse
# Plasma stability [26] = type: in vitro ADME; details: Mouse
# Microsomal stability [27] = type: in vitro ADME; details: Human
smiles,measurement,setting,value
"C#CC(F)(F)[C@]1(O)CC[C@H]2[C@@H]3CCC4=CC(=O)CCC4=C3[C@@H](c3ccc(-c4c(C)cc(C)cc4C)cc3)C[C@@]21C [EC359, 17α-(1,1-difluoro-2-propyn-1-yl)-17β-hydroxy-11β-[4-p-(2,4,6-trimethylphenyl)phenyl]estra-4,9-dien-3-one]",oral bioavailability,PK study in Mouse; Mouse,Orally bioavailable
same,Mouse PK (p.o),PK study in Mouse; p.o,1.0 h
same,CYP inhibition,[1],2D6 inhibition
same,Cardiotoxicity assessment (hERG),hERG membrane,No liability
same,tumor specific infiltration of lymphocytes and macrophages,[2]; ID-8 Ovarian cancer model,enhanced
same,M1 macrophages,[2]; ID-8 model,increased
same,"tumor specific accumulation of CD3+T, CD4+T and CD8+T cells",[2]; ID-8 model,increased
same,tumor burden,[2]; ID-8 ovarian syngeneic murine tumor model,significantly reduced
same,combination with PD-L1 treatment,[2]; ovarian cancer ID-8 syngeneic mice model,synergizes PD-L1 treatment
same,IC50,U-CH1,140 nM
same,IC50,Mug-Chor cells,85 nM
same,Microsomal stability,Microsomal stability [3],Rat & Dog-low
same,Single dose MTD,Single dose MTD,No toxicity observed
same,TNBC stem cells,[4],inhibited
same,"cytoskeletal disruption, targeting CAFs",[5],inhibition of alpha-SMA but not beta-tubulin
same,cytotoxicity (IC50's) in cytotoxicity assays,[6],low nano-molar range
same,liver damage (HFD induced steatohepatisis),"[7]; after 4 months of HFD, rats",significantly reduced
same,"fibrosis, Picrosirius red staining of liver tissue",[7]; intermediary and higher dose,Fibrosis was evident
same,efficacy in rat models of liver fibrosis,[7]; rat models of liver fibrosis,showed efficacy
same,"fibrosis, Picrosirius red staining of liver tissue",[7]; rats,minimal fibrosis
same,Kd,LIF,> 5000 nM
same,expression of markers of activated stroma (western blot),[8],"reduced the expression of markers of activated stroma including alpha-SMA, and vimentin"
same,relative reduction in GFP fluorescence,[8]; as compared to control,46%
same,Plasma stability (% remaining at 60 min),Plasma stability [9],113.92%
same,Rat PK (iv),PK study in Rat; iv,6 h
same,oral bioavailability,PK study in Rat; rat,high oral bioavailability; also recorded: Orally bioavailable
same,half-life,PK study in Rat; rats,long half-life
same,Plasma stability (% remaining at 60 min),Plasma stability [10],108.64%
same,Microsomal stability,Microsomal stability [11],Human & Mouse-moderate
same,formation of colonies in soft agar,cancer cells,blocked formation of colonies
same,fraction unbound,Plasma protein binding [12],0.0017
same,tumor burden,TNBC xenograft,dose dependently reduced tumor burden
same,Hepatocyte stability,Hepatocyte stability [13],Rat & Dog-low
same,Hepatocyte stability,Hepatocyte stability [14],Human & Mouse-moderate
same,Microsomal stability,Microsomal stability [15],Rat & Dog-low
same,fraction unbound,Plasma protein binding [16],0.0002
same,IC50,GR,> 10000 nM
same,tumor burden,MM51,dose dependently reduced tumor burden
same,combination with HDAC inhibitor,[17],works synergistically
same,fraction unbound,Plasma protein binding [18],0.0037
same,fraction unbound,Plasma protein binding [19],0.0011
same,solubility,[20],< 10 µg/mL
same,Mutagenicity testing,[21],No mutagenicity
same,IC50,hERG,> 30000 nM
same,Major metabolic pathway,[22],Major metabolic pathway-Phase I
same,glucuronide metabolites,[22]; low CL in UDPGA,metabolism; No glucuronide
same,Hepatocyte stability,Hepatocyte stability [23],Rat & Dog-low
same,Caco2-permeability,Caco2,Low permeable
same,efflux transporter substrate activity,Caco2,No efflux transporter
same,Plasma stability (% remaining at 60 min),Plasma stability [24],105.61%
same,Hepatocyte stability,Hepatocyte stability [25],Human & Mouse-moderate
same,Plasma stability (% remaining at 60 min),Plasma stability [26],104.91%
same,Microsomal stability,Microsomal stability [27],Human & Mouse-moderate
